Results published in PMC10739871, “Structural insights into the regulation, ligand recognition, and oligomerization of bacterial STING” (Nature Communications, 2023).
Where “and” joins values, the source holds several entries; their conditions need not be identical. Identical values can stand only once. Like-named read-outs stand apart in the source and are kept apart here. Each block holds one compound with its values, some of them ahead of it.

Legend:
ElSTING = test: ITC binding of cAA to ElSTING; design: species or system Epilithonimonas lactis; conditions: ITC (Supplementary Fig. 5)
Experimental: (§1) ITC experiments were performed at 25 °C using nano-ITC (TA Instruments). Purified RiSTING and ElSTING were exchanged into assay buffer containing 20 mM Tris pH 8.0, 150 mM NaCl. 10 mM stock of cGG (Item No. 17144, Cayman Chemical) and cAA (Item No. 17753, Cayman Chemical) were prepared by dissolving in the same buffer. 20 injections of ligand (0.9-1.2 mM) were sequentially titrated to tested STING protein solution (30-100 μM) with a stirring speed of 300 rpm. Data were fit to “independent” model to derive ΔH, ΔS, and Kd values using NanoAnalyze v3.12.5 (TA Instruments).

ElTIR-STING [1] = test: NAD+ cleavage activity assay, ElTIR-STING; assay type: biochemical, Epilithonimonas lactis; conditions: for ΔRFU after 10 mins (single replicates): 500 μM ε-NAD; for ΔRFU after 10 mins, Average: n = 3
Experimental: (§2) The NAD^+ cleavage activity of the N-terminal TIR domain of full-length TIR-STING proteins were accessed using the previously described protocol. Briefly, 100 μl reaction mixture containing ligand (cGG or cAA) at the indicated concentration and 500 μM ε-NAD (Product No. N2630, Sigma-Aldrich) in the assay buffer (20 mM HEPES pH 7.5, 100 mM KCl) was pre-incubated at room temperature. Tested TIR-STING protein (0.5–1 μM) was then added to start the reaction. The fluorescence signal was continuously monitored for 1 hour at an emission wavelength of 410 nm with excitation at 300 nm using Synergy H1 microplate reader (BioTek). The changes of relative fluorescence units at different time points were recorded.

[2] = test system: E. coli cells overexpressing ElTIR-STING; test: E. coli toxicity assay (growth curves), ElTIR-STING with or without cAA; assay type: cell-based, E. coli BL21(DE3); conditions: for OD600: replicates 1-3
Experimental: To access the cytotoxicity of TIR-STING proteins and their variants, E. coli BL21(DE3) cells which produce endogenous cGG were used. The cells carrying expression plasmid pET21 or pET24 with indicated TIR-STING were first inoculated into 3-ml LB medium and incubated at 37 °C with shaking overnight. The overnight culture was then diluted by fresh LB medium to an optical density at 600 nm (O.D.600) of ~0.1-0.2, followed by addition of 0.5 mM IPTG and 30 mM nicotinamide to induce the overexpression of tested proteins. […] To access the anti-phage ability of full-length LrTIR-STING, E. coli BL21(DE3) cells containing empty vector, pET24_LrTIR-STING or pET24_LrTIR-STING lid-to-loop mutant was first cultivated at 37 °C overnight and then diluted with fresh medium to O.D.600 of 0.1-0.2, followed by 0.5 mM IPTG induction and infected with T2 phage at a multiplicity of infection (MOI) of 10 or 0.01. The E. coli BL21(DE3) cells without IPTG induction and T2 phage infection was served as control.

[3] = test system: T2 phage infection of E. coli cells overexpressing ElTIR-STING; assay type: cell-based, E. coli BL21(DE3) / phage T2; conditions: for OD600: replicates 1-3
ElTIR-STING [4] = test: Gel filtration / SEC-MALS of ElTIR-STING with cAA; design: species or system Epilithonimonas lactis
Experimental: Purified protein samples for SEC-MALS analysis were diluted in buffer containing 50 mM Tris pH 8.0, 200 mM NaCl, 1 mM TCEP to a final concentration of 1 mg/ml. The protein sample was incubated with 0.11 mM cyclic di-nucleotide at 4 °C for 1 hour, followed by centrifugation at 4 °C, 18,000x g for 30 mins to remove precipitated proteins. The final protein sample was analyzed using GE AKTA UPC Purifier FPLC system coupled to a Wyatt Optilab T-rex refractive index detector and a Wyatt miniDAWN TREOS to obtain O.D.280, molar mass and refractive index (dRI).

RiSTING [5] = test: ITC binding of cGG to RiSTING; design: species or system Riemerella anatipestifer
Experimental: as §1

MyTIR-STING = test: NAD+ cleavage activity assay, MyTIR-STING (control); assay type: biochemical; conditions: 1 μM cGG
Experimental: as §2

RiSTING [6] = test: Dynamic light scattering of RiSTING with or without cGG; design: species or system Riemerella anatipestifer; conditions: two molar excesses of cGG; 84% of particles; 9.0 nm without cGG
Experimental: The DLS experiments were performed using Zetasizer Nano ZS90 (Malvern instruments). Briefly, protein samples containing 1 mg/ml RiSTING in the presence or absence of 2-fold molar excess of cGG were prepared and degassed. Polydispersity index (PDI) and globule size were examined at 25 °C.

[7] = target: oligomerization mutant ElTIR-STING^D175R,S179R (Epilithonimonas lactis DSM 19921); test: SEC; gel-filtration analysis of full-length ElTIR-STING in the absence of cAA
[8] = target: oligomerization mutant ElTIR-STING^D175R,S179R (Epilithonimonas lactis DSM 19921); test: SEC; gel-filtration analysis of full-length ElTIR-STING in the presence of cAA at 2-fold molar excess

Compound: Nc1ncnc2c1ncn2[C@@H]1O[C@@H]2COP(=O)(O)O[C@H]3[C@@H](O)[C@H](n4cnc5c(N)ncnc54)O[C@@H]3COP(=O)(O)O[C@H]2[C@H]1O [cAA, 3′3′-cyclic di-AMP]
binding affinity (in words) (ElSTING): micromolar affinity
ΔRFU after 10 mins (single replicates) (ElTIR-STING [1]; 1 μM cAA): 3735 RFU and 3756 RFU and 9276 RFU
ΔRFU after 10 mins, Average (ElTIR-STING [1]; 1 μM cAA): 5589 RFU
ΔRFU after 10 mins (single replicates) (ElTIR-STING [1]; 10 μM cAA): 3586 RFU and 4211 RFU and 4642 RFU
ΔRFU after 10 mins, Average (ElTIR-STING [1]; 10 μM cAA): 4146 RFU
ΔRFU after 10 mins (single replicates) (ElTIR-STING [1]; 100 μM cAA): 4282 RFU and 3852 RFU and 4467 RFU
ΔRFU after 10 mins, Average (ElTIR-STING [1]; 100 μM cAA): 4200 RFU
activation of NAD+ cleavage activity (in words) (ElTIR-STING [1]; full-length ElTIR-STING, up to 100 μM cAA): could not activate
OD600 ([2]; time 0 min, 300 μM cAA (Fig. 4b legend)): 0.028 (2×) and 0.026
OD600 ([2]; time 20 min, 300 μM cAA): 0.036 and 0.037 and 0.034
OD600 ([2]; time 40 min, 300 μM cAA): 0.056 (2×) and 0.054
OD600 ([2]; time 60 min, 300 μM cAA): 0.083 (2×) and 0.079
OD600 ([2]; time 80 min, 300 μM cAA): 0.125 and 0.124 and 0.119
OD600 ([2]; time 100 min, 300 μM cAA): 0.186 and 0.183 and 0.175
OD600 ([2]; time 120 min, 300 μM cAA): 0.252 (2×) and 0.244
OD600 ([2]; time 140 min, 300 μM cAA): 0.33 and 0.331 and 0.326
OD600 ([2]; time 160 min, 300 μM cAA): 0.408 (2×) and 0.41
OD600 ([2]; time 180 min, 300 μM cAA): 0.503 and 0.497 and 0.506
OD600 ([2]; time 200 min, 300 μM cAA): 0.563 and 0.565 and 0.575
OD600 ([2]; time 220 min, 300 μM cAA): 0.612 and 0.615 and 0.627
OD600 ([2]; time 240 min, 300 μM cAA): 0.66 (2×) and 0.677
OD600 ([2]; time 260 min, 300 μM cAA): 0.7 and 0.704 and 0.715
OD600 ([2]; time 280 min, 300 μM cAA): 0.73 and 0.732 and 0.743
OD600 ([2]; time 300 min, 300 μM cAA): 0.765 and 0.764 and 0.784
OD600 ([2]; time 320 min, 300 μM cAA): 0.798 and 0.804 and 0.81
OD600 ([2]; time 340 min, 300 μM cAA): 0.822 and 0.831 and 0.839
OD600 ([2]; time 360 min, 300 μM cAA): 0.854 and 0.863 and 0.865
OD600 ([2]; time 380 min, 300 μM cAA): 0.875 and 0.886 and 0.885
OD600 ([2]; time 400 min, 300 μM cAA): 0.892 and 0.904 and 0.902
OD600 ([2]; time 420 min, 300 μM cAA): 0.901 and 0.917 and 0.912
OD600 ([2]; time 440 min, 300 μM cAA): 0.911 and 0.927 and 0.92
OD600 ([2]; time 460 min, 300 μM cAA): 0.919 and 0.935 and 0.929
OD600 ([2]; time 480 min, 300 μM cAA): 0.926 and 0.943 and 0.935
OD600 ([2]; time 500 min, 300 μM cAA): 0.933 and 0.952 and 0.942
effect on growth of E. coli expressing ElTIR-STING (in words) ([2]; with vs without addition of cAA and vs empty vector): no differences
resistance to phage infection (in words) ([3]; 100 μM cAA in growth medium, T2 phage): did not confer resistance
OD600 ([3]; MOI = 0.01, time 30 min): 0.015 and 0.017 and 0.016
OD600 ([3]; MOI = 0.01, time 45 min): 0.021 and 0.024 and 0.023
OD600 ([3]; MOI = 0.01, time 60 min): 0.030 (2×) and 0.032
OD600 ([3]; MOI = 0.01, time 75 min): 0.036 (2×) and 0.038
OD600 ([3]; MOI = 0.01, time 90 min): 0.040 (2×) and 0.043
OD600 ([3]; MOI = 0.01, time 105 min): 0.042 and 0.045 and 0.041
OD600 ([3]; MOI = 0.01, time 120 min): 0.046 (2×) and 0.050
OD600 ([3]; MOI = 0.01, time 135 min): 0.050 and 0.053 and 0.049
OD600 ([3]; MOI = 0.01, time 150 min): 0.054 and 0.057 and 0.062
OD600 ([3]; MOI = 0.01, time 165 min): 0.058 and 0.060 and 0.056
OD600 ([3]; MOI = 0.01, time 180 min): 0.061 and 0.064 and 0.058
OD600 ([3]; MOI = 1, time 30 min): 0.017 and 0.015 and 0.011
OD600 ([3]; MOI = 1, time 45 min): 0.019 and 0.018 and 0.012
OD600 ([3]; MOI = 1, time 60 min): 0.021 and 0.019 and 0.014
OD600 ([3]; MOI = 1, time 75 min): 0.021 and 0.020 and 0.015
OD600 ([3]; MOI = 1, time 90 min): 0.023 and 0.021 and 0.016
OD600 ([3]; MOI = 1, time 105 min): 0.025 and 0.023 and 0.018
OD600 ([3]; MOI = 1, time 120 min): 0.027 and 0.025 and 0.019
OD600 ([3]; MOI = 1, time 135 min): 0.028 and 0.025 and 0.020
OD600 ([3]; MOI = 1, time 150 min): 0.029 and 0.027 and 0.021
OD600 ([3]; MOI = 1, time 165 min): 0.030 and 0.028 and 0.022
OD600 ([3]; MOI = 1, time 180 min): 0.030 and 0.029 and 0.022
OD600 ([3]; Uninfected, time 30 min): 0.025 and 0.017 (2×)
OD600 ([3]; Uninfected, time 45 min): 0.032 and 0.023 and 0.024
OD600 ([3]; Uninfected, time 60 min): 0.034 and 0.033 (2×)
OD600 ([3]; Uninfected, time 75 min): 0.049 and 0.047 and 0.046
OD600 ([3]; Uninfected, time 90 min): 0.067 and 0.064 and 0.063
OD600 ([3]; Uninfected, time 105 min): 0.091 and 0.087 (2×)
OD600 ([3]; Uninfected, time 120 min): 0.121 and 0.117 and 0.116
OD600 ([3]; Uninfected, time 135 min): 0.160 and 0.155 and 0.152
OD600 ([3]; Uninfected, time 150 min): 0.208 and 0.200 and 0.197
OD600 ([3]; Uninfected, time 165 min): 0.262 and 0.252 and 0.247
OD600 ([3]; Uninfected, time 180 min): 0.327 and 0.313 and 0.308
OD600 ([3]; Uninfected, time 195 min): 0.398
molecular weight of cAA-induced ElTIR-STING oligomer (ElTIR-STING [4]; SEC-MALS, 0.11 mM cyclic di-nucleotide): 3937–7883 kDa
oligomeric state induced (in words) (ElTIR-STING [4]; gel filtration, 2-fold molar excess of cAA, dimeric without ligand): large oligomers

Compound: Nc1nc2c(ncn2[C@@H]2O[C@@H]3COP(=O)(O)O[C@H]4[C@@H](O)[C@H](n5cnc6c(=O)[nH]c(N)nc65)O[C@@H]4COP(=O)(O)O[C@H]3[C@H]2O)c(=O)[nH]1 [cGG, 3′3′-cyclic di-GMP]
binding affinity (in words) (RiSTING [5]): nanomolar affinity
Kd (RiSTING [5]; 25 °C, 20 mM Tris pH 8.0, 150 mM NaCl, read-out: dissociation constant (Kd)): 0.1 nM
ΔRFU after 10 mins, Average (MyTIR-STING; n = 3): 31574 RFU
ΔRFU after 10 mins (single replicates) (MyTIR-STING; positive control): 32209 RFU and 31707 RFU and 30806 RFU
major particle size of RiSTING (RiSTING [6]): 40.6 nm

stoichiometry N [7]: 6 and 2
stoichiometry N [8]: 6 and 2
Compound: oligomerization mutant ElTIR-STING^D175R,S179R (natural protein)
